Test results from ChEMBL document CHEMBL5576149, “Discovery of Potent STT3A/B Inhibitors and Assessment of Their Multipathogen Antiviral Potential and Safety” (J Med Chem, 2024).
Values after ≈ are worked out from the molar mass of the structure shown. Active and inactive are the calls of the source. No cut-off for these calls is given here.

Key:
[1] = Cardiotoxicity in human iPSC-CM cells assessed as decrease in spike amplitude incubated for 48 hr by multi-electrode array analysis; assay type: toxicity, cell-based
[2] = Cardiotoxicity in human iPSC-CM cells assessed as increase in field potential duration incubated for 48 hr by multi-electrode array analysis; assay type: toxicity, cell-based
H1-HeLa [3] = test: Inhibition of STT3A/STT3B in human H1-HeLa cells assessed as upregulation of MANF gene expression incubated for 24 hrs; assay type: cell-based
[4] = target: Sodium channel protein type 5 subunit alpha (Homo sapiens, UniProt Q14524); test: Inhibition of Nav1.5 (unknown origin); assay type: toxicity
Sodium channel protein type 5 subunit alpha, sequence (Q14524 whole entry): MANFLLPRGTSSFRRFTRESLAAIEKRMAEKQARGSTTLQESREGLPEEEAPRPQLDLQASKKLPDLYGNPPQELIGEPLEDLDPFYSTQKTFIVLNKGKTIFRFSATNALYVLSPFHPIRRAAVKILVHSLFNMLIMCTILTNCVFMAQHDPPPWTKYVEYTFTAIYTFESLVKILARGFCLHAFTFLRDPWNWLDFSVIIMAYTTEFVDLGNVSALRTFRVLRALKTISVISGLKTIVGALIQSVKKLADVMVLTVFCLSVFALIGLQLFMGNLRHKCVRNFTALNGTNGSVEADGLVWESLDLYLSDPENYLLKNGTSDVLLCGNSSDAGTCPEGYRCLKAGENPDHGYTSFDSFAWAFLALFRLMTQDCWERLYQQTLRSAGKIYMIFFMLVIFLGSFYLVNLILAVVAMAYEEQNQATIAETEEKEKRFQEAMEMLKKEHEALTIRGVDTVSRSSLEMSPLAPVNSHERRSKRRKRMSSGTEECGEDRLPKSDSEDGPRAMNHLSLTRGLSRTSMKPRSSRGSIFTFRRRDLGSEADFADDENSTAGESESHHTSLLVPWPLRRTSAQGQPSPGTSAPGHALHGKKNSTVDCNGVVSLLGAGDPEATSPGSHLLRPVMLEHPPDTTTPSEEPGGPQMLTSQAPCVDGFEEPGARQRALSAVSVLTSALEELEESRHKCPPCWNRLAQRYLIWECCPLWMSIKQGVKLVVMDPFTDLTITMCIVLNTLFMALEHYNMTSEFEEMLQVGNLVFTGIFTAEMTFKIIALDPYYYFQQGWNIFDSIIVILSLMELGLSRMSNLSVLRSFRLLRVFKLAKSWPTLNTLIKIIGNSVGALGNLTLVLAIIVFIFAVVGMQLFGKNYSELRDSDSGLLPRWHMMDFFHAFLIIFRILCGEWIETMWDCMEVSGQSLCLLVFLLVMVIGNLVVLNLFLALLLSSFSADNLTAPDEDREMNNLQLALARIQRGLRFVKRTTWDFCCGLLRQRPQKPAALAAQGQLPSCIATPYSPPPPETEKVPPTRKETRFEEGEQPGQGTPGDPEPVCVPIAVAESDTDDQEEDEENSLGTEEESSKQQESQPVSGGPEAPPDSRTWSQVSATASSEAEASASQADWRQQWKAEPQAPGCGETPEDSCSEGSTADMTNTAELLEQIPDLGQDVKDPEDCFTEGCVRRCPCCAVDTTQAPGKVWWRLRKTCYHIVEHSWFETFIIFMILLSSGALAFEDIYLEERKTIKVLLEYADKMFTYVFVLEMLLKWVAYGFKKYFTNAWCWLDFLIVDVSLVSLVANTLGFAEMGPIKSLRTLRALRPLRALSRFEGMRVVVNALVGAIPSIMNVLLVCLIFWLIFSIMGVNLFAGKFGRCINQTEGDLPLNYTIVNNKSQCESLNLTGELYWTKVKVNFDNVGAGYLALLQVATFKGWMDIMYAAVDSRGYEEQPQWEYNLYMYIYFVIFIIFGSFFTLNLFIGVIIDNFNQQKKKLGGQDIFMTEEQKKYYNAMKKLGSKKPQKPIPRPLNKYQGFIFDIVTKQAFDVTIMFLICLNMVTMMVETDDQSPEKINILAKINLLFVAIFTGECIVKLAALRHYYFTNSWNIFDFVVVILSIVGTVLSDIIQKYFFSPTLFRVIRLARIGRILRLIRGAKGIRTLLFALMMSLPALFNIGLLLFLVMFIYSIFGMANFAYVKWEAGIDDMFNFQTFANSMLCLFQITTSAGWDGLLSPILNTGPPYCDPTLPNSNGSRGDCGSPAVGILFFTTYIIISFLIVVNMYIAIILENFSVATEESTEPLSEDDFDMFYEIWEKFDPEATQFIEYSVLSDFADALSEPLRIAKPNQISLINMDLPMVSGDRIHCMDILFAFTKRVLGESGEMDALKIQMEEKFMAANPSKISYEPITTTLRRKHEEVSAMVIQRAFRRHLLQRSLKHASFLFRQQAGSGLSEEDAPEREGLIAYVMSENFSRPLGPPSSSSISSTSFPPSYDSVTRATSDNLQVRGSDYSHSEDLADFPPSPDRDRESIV

[5] = Neurotoxicity in human iPSC cells co-cultured with human astrocyte assessed as […] incubated for 1 hr by multi-electrode array analysis; assay type: toxicity, cell-based; conditions: iPSC cells co-cultured with astrocytes
A549 [6] = test: Cytotoxicity against human A549 cells by fluorescent cell imaging assay; assay type: functional
[7] = Chromatographic hydrophobicity index, logD of the compound at pH 7.4; assay type: physicochemical; conditions: buffer
[8] = target: T1, Voltage-gated inwardly rectifying potassium channel KCNH2 (Homo sapiens, UniProt Q12809); test: Inhibition of hERG expressed in CHO cells by QPatch voltage clamp assay; assay type: toxicity, cell-based
T1 sequence (Q12809 whole entry): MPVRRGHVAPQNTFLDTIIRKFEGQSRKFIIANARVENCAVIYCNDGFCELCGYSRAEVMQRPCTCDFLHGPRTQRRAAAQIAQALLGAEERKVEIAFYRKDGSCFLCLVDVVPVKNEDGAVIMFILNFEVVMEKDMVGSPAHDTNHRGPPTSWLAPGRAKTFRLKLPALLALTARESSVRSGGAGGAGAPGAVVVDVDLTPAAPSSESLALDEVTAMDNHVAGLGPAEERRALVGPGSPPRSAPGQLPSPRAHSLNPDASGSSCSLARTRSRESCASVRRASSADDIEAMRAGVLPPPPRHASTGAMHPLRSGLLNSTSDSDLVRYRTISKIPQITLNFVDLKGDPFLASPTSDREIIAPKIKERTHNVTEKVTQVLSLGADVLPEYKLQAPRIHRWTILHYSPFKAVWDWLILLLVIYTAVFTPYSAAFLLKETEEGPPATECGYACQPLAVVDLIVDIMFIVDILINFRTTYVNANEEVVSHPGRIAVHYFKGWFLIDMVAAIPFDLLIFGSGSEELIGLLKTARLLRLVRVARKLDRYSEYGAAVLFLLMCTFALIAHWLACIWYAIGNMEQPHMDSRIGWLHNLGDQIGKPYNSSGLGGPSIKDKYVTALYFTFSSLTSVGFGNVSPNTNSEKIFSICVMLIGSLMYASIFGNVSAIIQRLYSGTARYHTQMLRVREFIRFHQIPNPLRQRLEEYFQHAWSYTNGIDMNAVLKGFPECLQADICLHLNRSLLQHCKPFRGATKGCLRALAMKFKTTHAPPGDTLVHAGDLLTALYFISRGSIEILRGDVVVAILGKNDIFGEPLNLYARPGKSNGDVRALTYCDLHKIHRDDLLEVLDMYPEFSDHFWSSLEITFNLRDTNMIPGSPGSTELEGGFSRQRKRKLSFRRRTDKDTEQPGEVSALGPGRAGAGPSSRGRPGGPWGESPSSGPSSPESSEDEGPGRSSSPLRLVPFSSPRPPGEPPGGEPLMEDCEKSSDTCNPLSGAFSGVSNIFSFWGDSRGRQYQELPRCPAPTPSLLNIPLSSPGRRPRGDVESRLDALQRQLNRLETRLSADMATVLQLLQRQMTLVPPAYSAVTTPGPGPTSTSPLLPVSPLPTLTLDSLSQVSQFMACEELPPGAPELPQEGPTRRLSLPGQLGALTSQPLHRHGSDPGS

Human coronavirus 229E = test: Antiviral activity against Human coronavirus 229E infected in human MRC5 cells assessed as reduction in viral growth incubated for 68 hrs by CellTiter-Glo luminescence assay; assay type: functional, organism-based; conditions: MRC5, 68 h
[9] = MRT in CD1 mouse at 2 mg/kg,po or 1 mg/kg,iv administrated upto 60 mins by LC-MS/MS analysis; assay type: ADME, organism-based; conditions: in vivo
[10] = Unbound clearance in rat liver microsomes at 0.5 uM incubated upto 45 mins; assay type: ADME, Microsome; conditions: 0.75 h
Influenza A virus [11] = test: Antiviral activity against influenza A virus H1N1 A/Puerto Rico/8/1934 infected in MDCK cells assessed as reduction in viral replication measured after 30 hrs of post-infection by RT-qPCR analysis relative to control; assay type: functional; parameters: scale not given: the % may be the effect or the level left
[12] = Cytotoxicity against human Hepatocyte cultured as 3D spheroids incubated for 14 days by CellTiter-Glo luminescence assay; assay type: toxicity, cell-based; conditions: hepatocytes cultured as 3D spheroids
[13] = Unbound clearance in human liver microsomes at 0.5 uM incubated upto 45 mins; assay type: ADME, Microsome; conditions: 0.75 h
[14] = Cytotoxicity against human MRC5 cells by luminescence-based cell viability assay; assay type: toxicity
A549 [15] = test: Cytotoxicity against human A549 cells; assay type: functional
[16] = Solubility of compound in FaSSIF; assay type: ADME
H1-HeLa [17] = test: Inhibition of STT3A/STT3B in human H1-HeLa cells assessed as upregulation of SDF2L1 gene expression incubated for 24 hrs; assay type: cell-based
[18] = Bioavailability in CD1 mouse at 2 mg/kg,po or 1 mg/kg,iv administrated upto 60 mins by LC-MS/MS analysis; assay type: ADME, organism-based; conditions: in vivo
H1-HeLa [19] = test: Inhibition of STT3A/STT3B in human H1-HeLa cells assessed as upregulation of […] gene expression incubated for 24 hrs; assay type: cell-based
[20] = Cardiotoxicity in human iPSC-CM cells assessed as increase in field potential duration at 370 nM incubated for 48 hr by multi-electrode array analysis; assay type: toxicity, cell-based; conditions: 0.37 µM
Human respirovirus 3 = test: Antiviral activity against Human parainfluenza virus 3 JS infected in human A549 cells assessed as reduction in viral proliferation incubated for 44 hrs by Hoechst dye based fluorescence analysis; assay type: functional, organism-based; conditions: Human respirovirus 3, JS, A549, 44 h
[21] = Cardiotoxicity in human iPSC-CM cells assessed as decrease in beat period at 30 uM incubated for 1 hr by multi-electrode array analysis; assay type: toxicity, cell-based
Influenza A virus [22] = test: Antiviral activity against influenza A virus H1N1 A/Puerto Rico/8/1934 infected in MDCK cells assessed as reduction in viral replication measured after 3 hrs of post-infection by RT-qPCR analysis relative to control; assay type: functional; parameters: scale not given: the % may be the effect or the level left
[23] = Inhibition of STT3A/STT3B mediated N-linked glycosylation in STT3B knockout human H1-HeLa cells stably transduced with Halo3N-ER sequence by measuring effective concentration incubated for 24 hrs by Western blotting analysis; assay type: cell-based
[24] = Volume of distribution at steady state in CD1 mouse at 2 mg/kg,po or 1 mg/kg,iv administrated upto 60 mins by LC-MS/MS analysis; assay type: ADME, organism-based; conditions: in vivo, 1 h
[25] = Cardiotoxicity in human iPSC-CM cells assessed as increase in field potential duration at 10 uM incubated for 1 hr by multi-electrode array analysis; assay type: toxicity, cell-based
[26] = Neurotoxicity in human iPSC cells co-cultured with human astrocyte assessed as reduction in neuronal firing rate at 0.37 to 30 uM incubated for 1 hr by multi-electrode array analysis; assay type: toxicity, cell-based; conditions: dose 0.37-30 µM
SARS-CoV-2 = test: Antiviral activity against SARS-CoV-2 infected in human A549 cells assessed as reduction in viral growth incubated for 24 hrs by Nano-Glo reagent based analysis; assay type: functional, organism-based; conditions: Severe acute respiratory syndrome coronavirus 2, A549, 24 h
[27] = Neurotoxicity in human iPSC cells co-cultured with human astrocyte assessed as inhibition of cell growth at 300 nM incubated for 48 hr by multi-electrode array analysis relative to control; assay type: toxicity, cell-based; conditions: iPSC cells co-cultured with astrocytes
[28] = Cardiotoxicity in human iPSC-CM cells assessed as decrease in beat period at 1 uM incubated for 48 hr by multi-electrode array analysis; assay type: toxicity, cell-based
[29] = Cardiotoxicity in human iPSC-CM cells assessed as decrease in spike amplitude at 370 nM incubated for 48 hr by multi-electrode array analysis; assay type: toxicity, cell-based; conditions: 0.37 µM
[30] = Cardiotoxicity in human iPSC-CM cells assessed as decrease in spike amplitude at 3 uM incubated for 1 hr by multi-electrode array analysis; assay type: toxicity, cell-based; parameters: scale not given: the % may be the effect or the level left
H1-HeLa [31] = test: Inhibition of STT3A/STT3B in human H1-HeLa cells assessed as upregulation of DERL3 gene expression incubated for 24 hrs; assay type: cell-based
Influenza A virus [32] = test: Antiviral activity against influenza A virus H1N1 A/Puerto Rico/8/1934 infected in MDCK cells assessed as reduction in viral proliferation incubated for 24 hrs by FFU assay; assay type: functional, organism-based; conditions: H1N1 A/Puerto Rico/8/1934, MDCK
[33] = Inhibition of STT3A/STT3B mediated N-linked glycosylation in human H1-HeLa cells stably transduced with ERluc by measuring effective concentration of inhibition incubated for 18 hrs by One-Glo luciferase reporter assay; assay type: cell-based
[34] = Inhibition of STT3A/STT3B mediated N-linked glycosylation in STT3A knockout human H1-HeLa cells stably transduced with Halo3N-ER sequence by measuring effective concentration incubated for 24 hrs by Western blotting analysis; assay type: cell-based
[35] = Unbound clearance in CD1 mouse at 2 mg/kg,po or 1 mg/kg,iv administrated upto 60 mins by LC-MS/MS analysis; assay type: ADME, organism-based; conditions: in vivo, 1 h
[36] = target: Voltage-dependent L-type calcium channel subunit alpha-1C (Homo sapiens, UniProt Q13936); test: Inhibition of Cav1.2 (unknown origin) expressed in HEK cells by manual patch clamp assay; assay type: toxicity, cell-based
[37] = target: T1, Voltage-gated inwardly rectifying potassium channel KCNH2; test: Inhibition of HA-tagged hERG expressed in human U2OS cells assessed as reduction in ERG protein at 3 uM incubated for 24 hrs by Western blotting analysis; assay type: toxicity, cell-based

With `C=C[C@H]1C[N@@]2CC[C@H]1C[C@@H]2[C@@H](O)c1ccnc2ccc(OC)cc12` [QUINIDINE] the Activity [1] was “Non-Toxic” and the Activity [2] was “Non-Toxic”.
With `CN(C)S(=O)(=O)c1ccc(N2CC[C@H](O)C2)c(-c2cc3ccccc3[nH]2)c1` the inhibition (H1-HeLa [3]) was “Active”, the IC50 [4] was about 20 µM and the IC50 at 1 hr [5] was 23 µM. It also gave a CC50 (A549 [6]) of 0.831 µM, a chromatographic logD [7] of 4.8 and an IC50 [8] of about 20 µM. For the same compound, the EC50 (Human coronavirus 229E) was 0.03 µM, the MRT [9] was 1 h and the CL free [10] was 3761 mL/min/kg. For the same compound, the Activity (Influenza A virus [11]) was 60%, the IC50 at 14 days [12] was under 1.2 µM and the CL free [13] was 158 mL/min/kg. For the same compound, the CC50 [14] was 0.984 µM, the CC50 (A549 [15]) was 2.75 µM and the solubility [16] was 53 µg/mL (≈ 137 µM). The inhibition (H1-HeLa [17]) was “Active”, the bioavailability [18] was 28% and the inhibition (H1-HeLa [19]) was “Active”. The Activity [20] was “Toxic”, the EC50 (Human respirovirus 3) was 0.187 µM and the Activity [21] was “Toxic”. The Activity (Influenza A virus [22]) was over 90%, the EC50 [23] was 0.041 µM and the Vdss [24] was 4.3 L/kg. The Activity [25] was 20%, the Activity [26] was “Toxic” and the EC50 (SARS-CoV-2) was 0.062 µM. The inhibition at 48 h, 0.3 µM [27] was 75%, the Activity [28] was “Toxic” and the Activity [29] was “Toxic”. The Activity [30] was 20%, the inhibition (H1-HeLa [31]) was “Active” and the EC50 (Influenza A virus [32]) was 0.297 µM. It also gave an EC50 [33] of 0.023 µM, an EC50 [34] of 0.063 µM and a CL free [35] of 2268 mL/min/kg. The IC50 [36] was over 100 µM.
With `O=C([C@@H]1CCN1S(=O)(=O)c1ccc(N2CCC(F)(F)C2)c(-c2cc3ccccc3[nH]2)c1)N1CCOCC1` the chromatographic logD [7] was 5.3, the CL free [10] was over 4854 mL/min/kg and the IC50 at 14 days [12] was under 1.2 µM. The CL free [13] was over 2851 mL/min/kg, the “inhibition (INH)” value [37] was “Active” and the EC50 [33] was 0.005 µM.
